These results are taken from publication PMC9939733 (The Journal of Biological Chemistry, 2023).

Several values for one entry are separate records, joined by “and”; a condition that tells them apart may be missing. Equal entries are not always repeated.

For assay [1], the target named is T1, R132H IDH1 (Homo sapiens, UniProt O75874, R132H). The experiment in a line: CPMG 1H NMR binding study. Also noted: made in house; host or cells: Escherichia coli BL21(DE3) pLyS. Conditions: 50 µM ligand, R132H IDH1 titrated, 10 mM CaCl2, pH 7.5. Here is the method: Binding studies were performed at 298K in buffer (50 mM Tris-d11, pH 7.5, 10%v/v D2O, 10 mM CaCl2) using CPMG NMR spectroscopy ([56]) and a water suppression pulse sequence.
similar manner as does 2OG. 1H NMR (CPMG-edited (2), 700 MHz) binding studies of R132H IDH1 with (a)
2OG/2OG derivative. […] Red spectra: 50 µM
Assays were performed as described in the Experimental
Procedures Section by titrating a concentrated R132H IDH1 stock solution (1.4 mM) into a mixture containing
(1 picture or pasted object on this page, not shown here)

In assay [2] the target is T1, R132H IDH1. In words: Steady-state kinetics, absorbance assay. The class given is biochemical. Details: made in house; host or cells: Escherichia coli BL21(DE3) pLyS. Here is the method:
Compounds were dispensed using a CyBio SDW-CW CyBi-Well Simultaneous Pipettor and assay started using a ThermoFisher Multidrop Combi reagent dispenser.
Reactions were performed as technical duplicates, and all assays were carried out in two independent duplicates.

The target of the next assay is T2, WT IDH1 (Homo sapiens, UniProt O75874).
T2 construct: made in house; host or cells: Escherichia coli BL21(DE3) pLyS
The experiment in a line: Absorbance assay, WT activity in the presence of equimolar DL-isocitrate (inhibition). Conditions: […] isocitrate and […] test compound, 75 μM NADP+, 2.0 nM WT IDH1. It counts as biochemical. An outline of the steps:
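Tech. quadruplicates; cpds pipetted simultaneously, reaction initiated by dispenser addition.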

The mark [3] stands for this setting: 0.03 μM enzyme, 50 μM NADPH, 20 mM MgCl2, pH 8.0.

T1 sequence (O75874 whole entry R132H): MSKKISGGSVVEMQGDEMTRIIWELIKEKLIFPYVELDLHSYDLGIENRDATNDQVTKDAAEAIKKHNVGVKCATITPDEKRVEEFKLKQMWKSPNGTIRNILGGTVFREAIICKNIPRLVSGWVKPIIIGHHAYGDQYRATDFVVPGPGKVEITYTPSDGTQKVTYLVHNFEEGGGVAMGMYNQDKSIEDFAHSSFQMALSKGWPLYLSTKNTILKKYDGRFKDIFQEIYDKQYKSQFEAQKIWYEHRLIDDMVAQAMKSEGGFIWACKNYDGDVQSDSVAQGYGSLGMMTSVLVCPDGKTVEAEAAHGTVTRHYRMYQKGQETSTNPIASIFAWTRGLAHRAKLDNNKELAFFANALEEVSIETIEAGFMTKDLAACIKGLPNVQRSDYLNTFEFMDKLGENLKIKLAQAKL
T2 sequence (O75874 whole entry): as the sequence (O75874 whole entry R132H) above, with H132R counted along it

In general, Vmax refers to the rate approached at saturating substrate. As to `O=C(O)CCC(=O)C(=O)O` [2OG, 2-oxoglutarate, reference compound], the “signal depletion (CPMG 1H NMR)” value at R132H IDH1 [1] is on record as about 80%. Moreover, on R132H IDH1 [2] (setting [3]), the Kmapp is ~ 0.85 mM and 0.85 ± 0.19 mM and 0.85 mM; the kcatapp was 0.72 ± 0.04 s⁻¹ and 0.5 to 0.7 s⁻¹. The Vmax at R132H IDH1 [2] (experimental value used for Michaelis-Menten simulation, Fig. 3H) was 1.3 µM/min. For the same compound, the “activity [%] (%-substrate conversion after 20 min incubation)” value at WT IDH1 is 93 ± 1%.
